Results reported in patent US20070249559A1, “Hydrating Composition” (priority 2004, published 2007).

How the values were obtained:
[1] = Body mass and body water compartments (bioimpedance) before and after 7-day supplementation; type: in vivo, human; details: for Change in extracellular water (ECW) post- vs pre-supplementation / Change in intracellular water (ICW) post- vs pre-supplementation / Change in total body water (TBW) post- vs pre-supplementation: bioimpedance; for Change in extracellular water (ECW) post- vs pre-supplementation / Change in intracellular water (ICW) post- vs pre-supplementation / Change in total body water (TBW) post- vs pre-supplementation / Change in body mass (BM) post- vs pre-supplementation: supplementation week; for Change in body mass (BM) post- vs pre-supplementation: well-trained cyclists, final supplement 5 hours prior
Procedure: (§1) The experimental design and protocol are complicated and is best understood by reference to FIGS. 1 and 2. The study consisted of two supplementation regimens, each lasting 7 days and encompassing four cycle performance trials consisting of 40 min constant-load exercise at 63% WRmax followed by a 16.1 km (10 mile) time trial. Prior to the first of these experimental trials, familiarisation trials were completed until the variability of two consecutive trials was within 5%. Following this familiarisation period, subjects were matched for body mass (BM) and were randomised in a double blind fashion to either a Cr or a placebo (Pl) group. Subjects performed an exercise trial pre- and post-supplementation in both supplementation weeks. The first test was conducted at least 48 hours after each subject's final familiarisation trial. Each supplementation period started on the day after the first test and finished on the day of the second test.
(§2) Cr supplementation consisted of 22.8 g·d^−1 of Cr.H2O (equivalent to 10 g Cr×2 daily) and 140 g of glucose polymer (70 g×2 daily) made up in 2 L of warm to hot water for 6 days. […] Each supplementation was made freshly prior to consumption in order to prevent any degradation of Cr to creatinine (Crn). The Pl supplement consisted of 170 g·d^−1 of glucose polymer (85 g×2 daily). During the first and third week of the experimental regimen, subjects in both groups received either 1 g glycerol (Gly) per·kg BM or an equivalent amount of Pl (sucrose solution) diluted in each supplement. In both post-supplementation trials (days 8 and 22) subjects consumed the appropriate supplement 5 hours prior to exercise. […] All supplements had similar taste, texture and appearance and were placed in generic water bottles to ensure double blind administration. On each of the experimental test days (i.e. days 1, 8, 15, 22) subjects ingested 500 ml of water 3 hours prior to exercise and a further 500 ml of water 1 hour prior to exercise to ensure subjects were adequately hydrated prior to all exercise trials (American College of Sports Medicine, 2000).
(§3) Procedures. Subjects reported to the laboratory on the day of testing following a 3 hr fast and having refrained from alcohol, caffeine and strenuous exercise the day before. Upon arrival at the laboratory, height and nude BM were measured and body water compartments were estimated using a Bodystat Multiscan 5000 Bioimpedance analyser (Bodystat Ltd, Isle of Man) (Van Loan, 1990). This method allows TBW and ECW to be estimated; from these measurements ICW can also be deduced. The bioimpedance measurements were taken while the subjects lay comfortably in a supine position on a non-conductive surface with their arms and legs slightly abducted. Following the bioimpedance measurement, a flexible rectal thermistor was inserted 10 cm beyond the anal sphincter to measure rectal temperature (Tre), an index of core temperature (Tc) and a heart rate (HR) monitor (Polar Sports Tester, Polar Electro Oy, Kempele, Finland) was attached. The subject's right hand and forearm were immersed in water at 42-44° C. for 15 min in order to allow for arterialisation of the venous blood (Forster at al. 1972). Following this, a 21 G cannula was introduced into a superficial vein on the dorsal surface of the heated hand. The subject was transferred to the climatic chamber (ambient temperature 30±1° C. with a relative humidity of 70±2% and air velocity of approximately 1.8 m·sec^−1) and seated on the cycle ergometer for 5 min. During this period thermistors (C8600 10 channel microprocessor, Comark, Hertfordshire, UK) were attached to the subject's chest, tricep, thigh and calf for the determination of weighted mean skin temperature (Tskin) (Ramanthan, 1964). The subject remained seated on the cycle ergometer for a further 1 min while resting HR, Tre, Tskin were recorded and a blood sample (10 ml) obtained. The venous cannula was kept patent by a 10 ml infusion of isotonic saline between samples. […]

[2] = Cycle exercise in the heat: 40 min constant load at 63% WRmax followed by 16.1 km time trial; type: in vivo, human; details: for Core temperature (Tc, rectal) during exercise post- vs pre-supplementation / Heart rate (HR) during exercise post- vs pre-supplementation: 30 C, 70% relative humidity; for RPE for breathlessness post- vs pre-supplementation / RPE for perceived leg fatigue post- vs pre-supplementation: Borg category scale; for Change in plasma volume (delta PV) during exercise post- vs pre-supplementation: calculated from Hb and PCV
Procedure: as §1, §2, §3

[3] = Side effects of the supplementation protocol; type: in vivo, human; details: 18 subjects
Source text: as §2
Side effects. […] 3 subjects from each group correctly identified the subject group and 2 subjects correctly identified the Gly supplementation week, while, all other subjects were unsure of the treatment they received.

[4] = consumed with a substantial fluid intake; by reducing urinary volume; cited from earlier work
[5] = bioimpedance estimate after supplementation

Compound	Increase in plasma volume (PV) ([1]; assuming 7.5% of the increase in TBW is plasma)	Increase in TBW (estimated, on average) [1, 5] [mL]	Part of TBW increase accounted for by increase in ICW [1, 5] [mL]	Change in extracellular water (ECW) post- vs pre-supplementation [1]	Change in intracellular water (ICW) post- vs pre-supplementation [1]	Change in total body water (TBW) post- vs pre-supplementation [1]	Change in body mass (BM) post- vs pre-supplementation [1]	Core temperature (Tc, rectal) during exercise post- vs pre-supplementation [2]	Heart rate (HR) during exercise post- vs pre-supplementation [2]	RPE for breathlessness post- vs pre-supplementation [2]	RPE for perceived leg fatigue post- vs pre-supplementation [2]	Change in plasma volume (delta PV) during exercise post- vs pre-supplementation [2]	16.1 km time trial performance ([2]; post- vs pre-supplementation)	Part of TBW increase accounted for by increase in ECW [1, 5] [mL]	Side effects reported [3]	Fluid expansion or retention above a fluid bolus alone [4] [mL]
CN(CC(=O)O)C(=N)N [Cr, methyl guanidine acetic acid]	approximately 51 ml	680	500	increased significantly	increased significantly	increased significantly	increased significantly	significantly lower	significantly lower	Lower	Significantly lower	lower	no effect	–	–	–
OCC(O)CO [Gly, glycerol]	–	600	–	increased significantly	no significant increase	increased significantly	increased significantly	not significantly different	significantly lower	no such effect	no such effect	not significantly different	–	400	only one report of gastrointestinal distress	~600
